US11878049B1, “Mitapivat therapy and modulators of cytochrome P450” (Agios Pharmaceuticals, Inc., priority 2019, dated 2024)
Structures can show the parent of a compound that is named as a salt.

Columns and labels:
Assay type in all cases: in vitro ADME
CYP2C9 = CYP2C9 (Homo sapiens, UniProt P11712); test: CYP enzyme inhibition
[1] = molecular target: uridine-5′-diphospho-glucuronosyltransferase (UGT) 1A4 (Homo sapiens, UniProt P22310); test: UGT inhibition
[2] = molecular target: organic cation transporter (OCT)2 (Homo sapiens, UniProt O15244); test: Transporter inhibition
Sequence of organic cation transporter (OCT)2 (O15244 whole entry): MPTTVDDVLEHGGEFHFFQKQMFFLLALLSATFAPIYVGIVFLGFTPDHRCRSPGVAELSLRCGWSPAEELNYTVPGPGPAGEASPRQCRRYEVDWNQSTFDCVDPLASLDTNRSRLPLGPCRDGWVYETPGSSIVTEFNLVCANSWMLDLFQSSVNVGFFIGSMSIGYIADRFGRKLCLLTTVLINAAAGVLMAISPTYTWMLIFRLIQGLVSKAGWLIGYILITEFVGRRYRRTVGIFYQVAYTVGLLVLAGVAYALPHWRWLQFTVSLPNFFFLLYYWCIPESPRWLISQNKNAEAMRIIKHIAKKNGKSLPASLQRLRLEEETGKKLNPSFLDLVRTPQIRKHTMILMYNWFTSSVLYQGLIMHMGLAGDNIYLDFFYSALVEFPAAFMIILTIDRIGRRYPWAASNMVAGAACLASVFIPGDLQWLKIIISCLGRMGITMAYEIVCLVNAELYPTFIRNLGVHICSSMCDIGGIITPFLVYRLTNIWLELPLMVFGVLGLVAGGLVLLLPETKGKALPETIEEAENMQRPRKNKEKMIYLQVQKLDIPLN

[3] = molecular target: organic anion transporting polypeptide (OATP)1B1 (Homo sapiens, UniProt Q9Y6L6); test: Transporter inhibition
[4] = molecular target: organic anion transporter (OAT)3 (Homo sapiens, UniProt Q8TCC7); test: Transporter inhibition
Sequence of organic anion transporter (OAT)3 (Q8TCC7 whole entry): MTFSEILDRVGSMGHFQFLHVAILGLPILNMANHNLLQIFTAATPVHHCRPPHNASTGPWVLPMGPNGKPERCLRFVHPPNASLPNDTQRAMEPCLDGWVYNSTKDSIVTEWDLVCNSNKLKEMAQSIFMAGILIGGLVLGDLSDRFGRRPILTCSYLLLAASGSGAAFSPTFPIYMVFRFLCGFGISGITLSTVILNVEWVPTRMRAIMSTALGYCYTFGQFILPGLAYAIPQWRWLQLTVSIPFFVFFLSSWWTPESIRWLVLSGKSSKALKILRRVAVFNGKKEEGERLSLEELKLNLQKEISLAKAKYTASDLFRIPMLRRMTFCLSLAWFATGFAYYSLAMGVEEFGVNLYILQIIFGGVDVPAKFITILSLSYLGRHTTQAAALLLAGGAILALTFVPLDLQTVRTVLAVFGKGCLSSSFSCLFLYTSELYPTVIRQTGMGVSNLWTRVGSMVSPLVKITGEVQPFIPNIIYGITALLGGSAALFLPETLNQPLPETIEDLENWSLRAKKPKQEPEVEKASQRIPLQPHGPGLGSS

[5] = molecular target: T1, breast cancer resistance protein (BCRP) (Homo sapiens, UniProt Q9UNQ0); test: Transporter inhibition
T1 sequence (Q9UNQ0 1-655): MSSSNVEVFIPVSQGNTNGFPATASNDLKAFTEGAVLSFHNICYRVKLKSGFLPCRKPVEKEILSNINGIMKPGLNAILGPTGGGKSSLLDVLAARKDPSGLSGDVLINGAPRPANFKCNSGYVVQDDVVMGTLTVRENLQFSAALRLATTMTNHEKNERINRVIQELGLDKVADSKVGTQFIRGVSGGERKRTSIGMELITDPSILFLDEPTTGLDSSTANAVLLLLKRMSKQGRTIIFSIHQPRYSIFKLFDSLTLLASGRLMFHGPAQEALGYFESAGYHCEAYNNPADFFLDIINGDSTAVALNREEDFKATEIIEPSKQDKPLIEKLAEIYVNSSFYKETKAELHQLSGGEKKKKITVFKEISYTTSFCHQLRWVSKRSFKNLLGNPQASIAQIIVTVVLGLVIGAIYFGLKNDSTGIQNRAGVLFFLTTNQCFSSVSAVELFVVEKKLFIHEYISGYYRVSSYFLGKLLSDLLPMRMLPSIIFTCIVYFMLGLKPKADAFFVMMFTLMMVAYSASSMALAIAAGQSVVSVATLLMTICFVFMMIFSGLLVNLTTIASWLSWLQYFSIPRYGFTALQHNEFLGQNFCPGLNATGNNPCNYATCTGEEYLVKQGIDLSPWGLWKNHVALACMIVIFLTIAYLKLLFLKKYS

OATP1B3 = OATP1B3 (Homo sapiens, UniProt Q9NPD5); test: Transporter inhibition
[6] = molecular target: uridine-5′-diphospho-glucuronosyltransferase (UGT) 1A3 (Homo sapiens, UniProt P35503); test: UGT inhibition
[7] = molecular target: multidrug resistance-associated protein (MRP)2 (Homo sapiens, UniProt Q92887); test: Transporter inhibition
P-gp [8] = molecular target: T2, P-gp (Homo sapiens, UniProt P08183); test: Transporter inhibition
T2 sequence (P08183 whole entry): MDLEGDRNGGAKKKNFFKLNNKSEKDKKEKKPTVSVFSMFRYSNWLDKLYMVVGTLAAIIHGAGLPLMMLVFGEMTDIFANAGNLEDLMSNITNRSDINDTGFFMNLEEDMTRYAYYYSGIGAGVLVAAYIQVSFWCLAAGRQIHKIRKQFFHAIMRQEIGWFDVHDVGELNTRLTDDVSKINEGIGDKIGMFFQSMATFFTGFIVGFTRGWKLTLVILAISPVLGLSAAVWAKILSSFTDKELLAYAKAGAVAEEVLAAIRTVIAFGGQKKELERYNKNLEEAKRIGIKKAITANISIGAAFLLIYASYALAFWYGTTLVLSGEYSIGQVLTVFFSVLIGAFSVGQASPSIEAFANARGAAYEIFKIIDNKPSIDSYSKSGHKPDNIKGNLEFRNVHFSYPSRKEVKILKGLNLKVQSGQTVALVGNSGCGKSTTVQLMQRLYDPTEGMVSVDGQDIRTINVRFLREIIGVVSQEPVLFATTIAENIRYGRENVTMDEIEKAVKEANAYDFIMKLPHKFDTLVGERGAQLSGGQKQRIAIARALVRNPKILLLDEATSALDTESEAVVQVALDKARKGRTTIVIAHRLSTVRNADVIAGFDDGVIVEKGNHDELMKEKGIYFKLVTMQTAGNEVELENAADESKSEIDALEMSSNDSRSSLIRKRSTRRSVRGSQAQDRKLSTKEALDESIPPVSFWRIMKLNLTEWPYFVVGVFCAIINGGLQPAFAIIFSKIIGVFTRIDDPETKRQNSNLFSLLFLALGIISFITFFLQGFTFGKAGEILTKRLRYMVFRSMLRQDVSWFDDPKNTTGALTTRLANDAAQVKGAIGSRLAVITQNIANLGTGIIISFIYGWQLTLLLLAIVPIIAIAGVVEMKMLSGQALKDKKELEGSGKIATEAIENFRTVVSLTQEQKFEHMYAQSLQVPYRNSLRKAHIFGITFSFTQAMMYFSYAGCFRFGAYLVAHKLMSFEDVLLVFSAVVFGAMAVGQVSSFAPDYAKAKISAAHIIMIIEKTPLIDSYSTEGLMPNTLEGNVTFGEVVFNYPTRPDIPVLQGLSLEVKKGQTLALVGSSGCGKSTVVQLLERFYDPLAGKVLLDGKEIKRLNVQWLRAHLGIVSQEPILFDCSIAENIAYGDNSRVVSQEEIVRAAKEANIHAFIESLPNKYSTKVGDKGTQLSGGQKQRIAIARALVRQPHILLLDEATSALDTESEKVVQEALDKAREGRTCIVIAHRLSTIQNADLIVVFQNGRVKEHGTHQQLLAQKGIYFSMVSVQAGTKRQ

CYP2C19 [9] = molecular target: T3, CYP2C19 (Homo sapiens, UniProt P33261); test: CYP enzyme inhibition
T3 sequence (P33261 whole entry): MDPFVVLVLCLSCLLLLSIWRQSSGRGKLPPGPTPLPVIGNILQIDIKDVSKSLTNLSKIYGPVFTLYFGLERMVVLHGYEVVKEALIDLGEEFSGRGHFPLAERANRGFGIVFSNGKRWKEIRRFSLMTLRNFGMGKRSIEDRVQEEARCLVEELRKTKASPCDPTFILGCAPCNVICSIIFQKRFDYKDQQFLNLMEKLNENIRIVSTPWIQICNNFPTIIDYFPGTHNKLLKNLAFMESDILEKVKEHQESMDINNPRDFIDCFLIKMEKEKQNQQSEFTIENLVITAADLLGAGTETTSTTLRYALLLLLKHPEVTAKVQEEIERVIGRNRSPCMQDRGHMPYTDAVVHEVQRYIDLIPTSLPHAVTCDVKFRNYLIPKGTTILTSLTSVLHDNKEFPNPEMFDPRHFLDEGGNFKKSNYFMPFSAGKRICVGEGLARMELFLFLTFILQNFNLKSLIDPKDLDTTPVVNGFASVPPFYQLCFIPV

CYP3A4 = CYP3A4 (Homo sapiens, UniProt P08684); test: Metabolism-dependent CYP inhibition
[10] = molecular target: uridine-5′-diphospho-glucuronosyltransferase (UGT) 1A9 (Homo sapiens, UniProt O60656); test: UGT inhibition
human CYP3A4 = test: CYP induction
CYP2D6 = CYP2D6 (Homo sapiens, UniProt P10635); test: CYP enzyme inhibition
Sequence of CYP2D6 (P10635 whole entry): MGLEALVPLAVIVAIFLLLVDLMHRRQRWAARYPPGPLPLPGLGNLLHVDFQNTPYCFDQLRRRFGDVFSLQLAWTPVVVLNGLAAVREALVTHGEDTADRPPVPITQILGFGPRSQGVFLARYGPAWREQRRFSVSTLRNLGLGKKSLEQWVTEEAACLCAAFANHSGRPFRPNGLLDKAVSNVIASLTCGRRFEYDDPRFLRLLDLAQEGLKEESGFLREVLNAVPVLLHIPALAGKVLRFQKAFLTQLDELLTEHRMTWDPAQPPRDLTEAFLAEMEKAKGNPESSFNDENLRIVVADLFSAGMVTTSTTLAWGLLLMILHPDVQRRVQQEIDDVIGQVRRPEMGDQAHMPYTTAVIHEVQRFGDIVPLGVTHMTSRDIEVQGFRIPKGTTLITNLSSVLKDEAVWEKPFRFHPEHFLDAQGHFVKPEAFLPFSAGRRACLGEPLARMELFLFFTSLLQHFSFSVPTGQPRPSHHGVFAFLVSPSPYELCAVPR

MRP3 = MRP3 (Homo sapiens, UniProt O15438); test: Transporter inhibition
P-gp [11] = molecular target: T2, P-gp; test: Transporter substrate assessment
CYP2C19 [12] = molecular target: T3, CYP2C19; test: Metabolism-dependent CYP inhibition
CYP2C8 = CYP2C8 (Homo sapiens, UniProt P10632); test: CYP enzyme inhibition
CYP3A4/5 = test: CYP enzyme inhibition (testosterone 6β-hydroxylation)
human CYP2B6 = test: CYP induction
[13] = molecular target: T1, breast cancer resistance protein (BCRP); test: Transporter substrate assessment
[14] = molecular target: bile salts export pump (BSEP) (Homo sapiens, UniProt O95342); test: Transporter inhibition
Sequence of bile salts export pump (BSEP) (O95342 whole entry): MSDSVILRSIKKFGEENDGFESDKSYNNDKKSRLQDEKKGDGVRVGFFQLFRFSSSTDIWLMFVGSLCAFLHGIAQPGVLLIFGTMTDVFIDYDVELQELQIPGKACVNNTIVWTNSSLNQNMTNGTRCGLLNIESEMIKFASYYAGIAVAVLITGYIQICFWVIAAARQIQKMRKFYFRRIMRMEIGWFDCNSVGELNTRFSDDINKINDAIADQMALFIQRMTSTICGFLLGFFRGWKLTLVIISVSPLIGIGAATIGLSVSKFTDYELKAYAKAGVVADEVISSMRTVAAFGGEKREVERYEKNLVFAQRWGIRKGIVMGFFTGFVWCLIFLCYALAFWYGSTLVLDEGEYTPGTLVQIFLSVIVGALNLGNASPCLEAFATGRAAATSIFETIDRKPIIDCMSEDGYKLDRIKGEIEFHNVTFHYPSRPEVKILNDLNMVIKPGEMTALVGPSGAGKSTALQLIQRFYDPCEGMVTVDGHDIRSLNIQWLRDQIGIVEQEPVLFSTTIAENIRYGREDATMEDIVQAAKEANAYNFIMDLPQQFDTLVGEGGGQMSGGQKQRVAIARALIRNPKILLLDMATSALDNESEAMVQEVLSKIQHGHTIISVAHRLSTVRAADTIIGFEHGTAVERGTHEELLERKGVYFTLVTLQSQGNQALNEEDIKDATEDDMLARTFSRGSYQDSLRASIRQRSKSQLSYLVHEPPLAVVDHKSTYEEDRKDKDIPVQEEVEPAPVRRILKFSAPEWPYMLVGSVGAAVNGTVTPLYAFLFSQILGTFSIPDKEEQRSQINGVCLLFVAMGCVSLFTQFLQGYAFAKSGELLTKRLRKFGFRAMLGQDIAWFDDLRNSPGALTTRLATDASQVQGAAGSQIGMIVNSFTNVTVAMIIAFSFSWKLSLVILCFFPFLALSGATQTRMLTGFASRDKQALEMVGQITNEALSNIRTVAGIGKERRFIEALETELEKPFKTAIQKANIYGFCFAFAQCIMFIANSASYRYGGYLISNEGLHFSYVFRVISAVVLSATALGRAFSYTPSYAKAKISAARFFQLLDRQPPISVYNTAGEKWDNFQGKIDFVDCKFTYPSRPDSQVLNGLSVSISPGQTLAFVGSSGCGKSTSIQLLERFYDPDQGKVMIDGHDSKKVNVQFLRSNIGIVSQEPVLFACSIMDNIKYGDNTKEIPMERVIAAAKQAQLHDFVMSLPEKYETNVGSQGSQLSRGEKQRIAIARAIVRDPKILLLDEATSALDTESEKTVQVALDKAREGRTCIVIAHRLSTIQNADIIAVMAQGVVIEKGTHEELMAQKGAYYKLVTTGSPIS

OAT1 = OAT1 (Homo sapiens, UniProt Q4U2R8); test: Transporter inhibition

With `O=C(c1ccc(NS(=O)(=O)c2cccc3cccnc23)cc1)N1CCN(CC2CC2)CC1` [Mitapivat sulfate] the “Inhibition of CYP2C9” value (CYP2C9) was “mild inhibitor”, the “Inhibition of UGT1A4” value [1] was “mild inhibitor” and the “Inhibition of OCT2” value [2] was “mild inhibitor”. The “Inhibition of OATP1B1” value [3] was “mild inhibitor”, the “Inhibition of OAT3” value [4] was “mild inhibitor” and the “Inhibitor for BCRP” value [5] was “not for breast cancer resistance protein (BCRP)”. For the same compound, the “Inhibition of OATP1B3” value (OATP1B3) was “does not appear to be an inhibitor”, the “Inhibition of UGT1A3” value [6] was “mild inhibitor” and the “Inhibition of MRP2” value [7] was “does not appear to be an inhibitor”. For the same compound, the “Inhibitor for P-gp” value (P-gp [8]) was “inhibitor”, the “Inhibition of CYP2C19” value (CYP2C19 [9]) was “mild inhibitor” and the “Metabolism-dependent inhibition of CYP3A4 (evidence found), reversibility” value (CYP3A4) was “largely irreversible”. For the same compound, the “Inhibition of UGT1A9” value [10] was “mild inhibitor”, the “Induction of human CYP3A4” value (human CYP3A4) was “potential inducer” and the “Inhibition of CYP2D6” value (CYP2D6) was “mild inhibitor”. For the same compound, the “Inhibition of MRP3” value (MRP3) was “does not appear to be an inhibitor”, the “Substrate for P-gp” value (P-gp [11]) was “substrate” and the “Metabolism-dependent inhibition of CYP2C19 (evidence found), reversibility” value (CYP2C19 [12]) was “largely reversible”. The “Inhibition of CYP2C8” value (CYP2C8) was “mild inhibitor”, the “Inhibition of CYP3A4/5” value (CYP3A4/5) was “mild inhibitor” and the “Induction of human CYP2B6” value (human CYP2B6) was “potential inducer”. The “Substrate for BCRP” value [13] was “not for breast cancer resistance protein (BCRP)”, the “Inhibition of BSEP” value [14] was “mild inhibitor” and the “Inhibition of OAT1” value (OAT1) was “does not appear to be an inhibitor”.
